Measured values taken from EP2650284A1, “Heterocyclic derivatives as metabotropic glutamate receptor modulators” (Merz Pharma GmbH & Co. KGaA, priority 2012, dated 2013).

Legend:
[1] = target: T1, human metabotropic glutamate receptor mGluR5 (Homo sapiens, UniProt P41594); experiment: Cytosolic calcium studies with stably transfected cells (h5CHO), functional assay of mGluR5 receptors; type: cell-based; conditions: for h left shift / EC50: Table A1; for h left shift: left shift of agonist EC50, dose response curves in the presence of 10 µM modulator or vehicle; for EC50: positive modulators, h5CHO cells preincubated with modulator, stimulated by an EC20 concentration of L-glutamate, read-out: hEC50
T1 construct: expressed in transfected cells; host or cells: CHO-K1 (h5CHO), IPTG-inducible
T1 sequence (P41594 21-1212): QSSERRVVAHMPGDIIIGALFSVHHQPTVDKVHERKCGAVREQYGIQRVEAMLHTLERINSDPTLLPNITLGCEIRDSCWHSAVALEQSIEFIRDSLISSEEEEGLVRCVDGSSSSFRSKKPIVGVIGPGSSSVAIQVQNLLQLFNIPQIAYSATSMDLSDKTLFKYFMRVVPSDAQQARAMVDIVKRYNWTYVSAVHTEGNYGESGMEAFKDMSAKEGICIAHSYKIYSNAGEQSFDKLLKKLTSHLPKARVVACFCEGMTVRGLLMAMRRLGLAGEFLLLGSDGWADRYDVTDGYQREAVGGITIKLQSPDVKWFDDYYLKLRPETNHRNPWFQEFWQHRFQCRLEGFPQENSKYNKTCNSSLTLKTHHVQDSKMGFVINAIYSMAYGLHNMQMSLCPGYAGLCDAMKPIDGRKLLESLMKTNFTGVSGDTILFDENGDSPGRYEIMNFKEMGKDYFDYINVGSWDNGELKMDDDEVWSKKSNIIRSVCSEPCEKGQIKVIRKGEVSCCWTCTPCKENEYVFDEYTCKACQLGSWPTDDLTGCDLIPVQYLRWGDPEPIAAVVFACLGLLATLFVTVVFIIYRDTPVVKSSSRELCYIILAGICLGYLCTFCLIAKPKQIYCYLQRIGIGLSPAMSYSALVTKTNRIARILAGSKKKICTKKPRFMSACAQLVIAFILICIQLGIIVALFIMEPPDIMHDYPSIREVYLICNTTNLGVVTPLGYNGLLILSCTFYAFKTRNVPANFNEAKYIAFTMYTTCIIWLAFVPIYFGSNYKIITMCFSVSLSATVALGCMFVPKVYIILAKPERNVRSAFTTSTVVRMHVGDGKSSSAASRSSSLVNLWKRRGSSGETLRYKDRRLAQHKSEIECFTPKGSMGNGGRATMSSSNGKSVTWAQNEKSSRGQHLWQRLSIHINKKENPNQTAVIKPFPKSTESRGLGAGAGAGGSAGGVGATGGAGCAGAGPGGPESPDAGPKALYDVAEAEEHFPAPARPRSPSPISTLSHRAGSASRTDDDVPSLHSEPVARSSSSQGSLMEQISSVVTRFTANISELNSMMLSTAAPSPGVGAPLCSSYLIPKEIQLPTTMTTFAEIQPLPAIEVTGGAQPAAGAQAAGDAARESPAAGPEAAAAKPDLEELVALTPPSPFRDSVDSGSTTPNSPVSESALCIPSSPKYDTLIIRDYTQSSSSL
Protocol: Chinese hamster ovary cells (CHO-K1 cells), stably transfected for inducible expression of a human metabotropic glutamate receptor mGluR5 to form a cell line called h5CHO, are seeded into black clear bottom 96 well plates at a density of 35.000 cells per well. The standard growth medium used (Dulbecco's modified Eagle Medium, DMEM plus L-proline) contains the appropriate inducer isopropyl-β-D-thiogalactopyranosid (IPTG) to achieve optimal receptor expression. One day after seeding the growth medium is exchanged for reconstituted Ca-Kit (Molecular Devices, USA) and incubated for one hour. Ca-Kit is reconstituted in an assay buffer containing 20 mM HEPES pH 7.4, glutamic-pyruvate transaminase, pyridoxal phosphate and sodium pyruvate in Hank's balanced salt solution (HBBS). Agonistic compounds to the receptor elicit increases in cytosolic calcium which can be measured as increases in fluorescence signals by use of a fluorescence imaging plate reader (Molecular Devices). To analyze their potency to negatively modulate the Ca-response test compounds, dissolved in a final DMSO concentration of 0.5%, are added on-line 5 minutes before the agonist to the receptor (L-quisqualic acid at a concentration giving ~80% of the maximal signal). EC50 values for positive allosteric modulators were determined by stimulating the cells which have been preincubated the modulators by an EC20 concentration of L-glutamate.
(§1) The fluorescence signal increase after addition of agonist reflects the increase of cytosolic calcium. Inconsistencies in the amount of cells per well are normalised by using the spatial uniformity correction of the FLIPR operating software Screenworks. The mean of replicated temporal data (n=3-5) is calculated and used for graphical representation. For the evaluation of the pharmacology, the calcium changes in response to different concentrations of agonist or antagonist are determined using a maximum minus minimum (MaxMin) calculation.
(§2) All responses (RFU-values) are determined as percentage of control (= maximum response). EC50 and IC50 are calculated according the logistic equation using XLFit (IDBS, UK) or Prism 4.0 (GraphPad Software, USA). The compounds of the present invention have a potency (EC50 or IC50) within a range of about 0.5 nM to about 100 µM. The left shifts for positive or slient allosteric modulators (PAMs or SAMs, respectively) are determined by comparison of EC50 values from agonist dose response curves run in the presence of 10 µM modulator or vehicle (Vanejevs et al., J. Med. Chem., 2008, 51, 634-647).

mGluR5 receptors = target: T2, mGluR5 receptors (Rattus norvegicus, UniProt P31424); experiment: Cytosolic calcium studies with astrocytes (FLIPR), functional assay of mGluR5 receptors; type: cell-based; conditions: for r left shift: Table A1, left shift of quisqualate EC50 in the presence and absence of 10 µM modulator; for EC50: Table A1, positive modulators, fixed concentration of quisqualate (normally 10-30 nM), read-out: rEC50
T2 construct: Primary astrocyte cultures are prepared from cortices of newborn rats; endogenous in cells; host or cells: primary cortical astrocytes from Sprague-Dawley rat pups (2-4 d old)
T2 sequence (P31424 21-1203): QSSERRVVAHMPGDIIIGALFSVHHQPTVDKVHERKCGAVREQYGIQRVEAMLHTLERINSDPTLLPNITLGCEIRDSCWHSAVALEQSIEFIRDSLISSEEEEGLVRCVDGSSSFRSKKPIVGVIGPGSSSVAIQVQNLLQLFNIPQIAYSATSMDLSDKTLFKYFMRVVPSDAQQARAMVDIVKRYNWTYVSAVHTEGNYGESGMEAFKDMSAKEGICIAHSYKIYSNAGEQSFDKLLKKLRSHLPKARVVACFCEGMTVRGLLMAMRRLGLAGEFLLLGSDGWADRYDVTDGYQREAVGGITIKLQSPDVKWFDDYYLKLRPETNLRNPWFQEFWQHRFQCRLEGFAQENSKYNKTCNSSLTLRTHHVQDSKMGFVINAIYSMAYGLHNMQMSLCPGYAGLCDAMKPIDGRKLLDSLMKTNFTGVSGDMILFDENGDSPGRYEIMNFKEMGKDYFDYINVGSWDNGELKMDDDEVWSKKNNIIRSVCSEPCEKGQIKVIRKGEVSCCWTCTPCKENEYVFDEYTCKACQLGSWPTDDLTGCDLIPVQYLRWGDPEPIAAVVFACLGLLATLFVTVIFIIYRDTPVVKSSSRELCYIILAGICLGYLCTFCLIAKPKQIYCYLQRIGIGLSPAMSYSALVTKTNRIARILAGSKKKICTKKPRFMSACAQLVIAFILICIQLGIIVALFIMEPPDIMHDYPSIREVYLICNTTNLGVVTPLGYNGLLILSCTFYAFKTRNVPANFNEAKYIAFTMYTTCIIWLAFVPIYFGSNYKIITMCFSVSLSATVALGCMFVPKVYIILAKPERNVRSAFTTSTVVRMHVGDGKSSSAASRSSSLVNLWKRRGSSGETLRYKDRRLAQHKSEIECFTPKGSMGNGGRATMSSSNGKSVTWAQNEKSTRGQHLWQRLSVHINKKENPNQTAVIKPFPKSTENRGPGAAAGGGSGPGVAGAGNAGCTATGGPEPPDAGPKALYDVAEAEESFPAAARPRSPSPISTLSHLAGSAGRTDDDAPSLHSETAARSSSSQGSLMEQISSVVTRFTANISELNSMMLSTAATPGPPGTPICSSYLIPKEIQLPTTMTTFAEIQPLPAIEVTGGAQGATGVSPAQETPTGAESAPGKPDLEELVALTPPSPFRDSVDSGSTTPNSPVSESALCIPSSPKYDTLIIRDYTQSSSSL
Protocol: Primary astrocyte cultures are prepared from cortices of newborn rats as described by Booher and Sensenbrenner (1972, Neurobiology 2(3):97-105). Briefly, Sprague-Dawley rat pups (2 - 4 d old) are decapitated and neocortices are dissected, disintegrated with a nylon filter (pore size 80 µm) and carefully triturated. The cell suspension is plated on poly-D-lysine pre-coated flasks (Costar, Netherlands) and cultivated in Dulbecco's Modified Eagle's Medium (DMEM, Invitrogen, Germany) supplemented with 10% foetal calf serum (FCS, Sigma, Germany), 4 mM glutamine and 50 µg/ml gentamycin (both Biochrom, Germany) at 37°C in a humidified atmosphere of 5% CO2/ 95% air for 7 days with exchanging the medium at day 2 and 6.
After 7 days in vitro (DIV), cells are shaken overnight at 250 rpm to remove oligodendrocytes and microglia. The next day, astrocytes are rinsed twice with CMF-PBS (calcium- and magnesium-free phosphate buffered saline, Biochrom, Germany), trypsinized and subplated on poly-D-lysine pre-coated 96-well plates (Greiner, Germany) at a density of 40,000 cells/well. 24 h after establishing the secondary culture the astrocytes are rinsed with PBS^++ (phosphate buffered saline, Biochrom, Germany) and fed with astrocyte-defined medium (ADM) consisting of DMEM containing 1x G5-supplement (Invitrogen, Germany), 0.5 µg/ml heparan sulfate, and 1.5 µg/ml fibronectin (both Sigma, Germany) (Miller et al., (1993) Brain Res. 618(1):175-8). 3 days later the medium is exchanged and the cells incubated for another 2-3 days, so that at the time of experiments astrocytes are 14-15 DIV.
The increase of cytosolic calcium after stimulation with the mGluR5 agonist L-quisqualate is measured using a fluorometric imaging plate reader (FLIPR) and the Ca-Kit (both Molecular Devices). Prior to addition of agonist or antagonist the medium is aspirated and cells are loaded for 2 h at RT with 150 µl of loading buffer consisting of Ca-sensitive dye reconstituted in sodium chloride (123 mM), potassium chloride (5.4 mM), magnesium chloride (0.8 mM), calcium chloride (1.8 mM), D-glucose (15 mM), and HEPES (20 mM), pH 7.3. Subsequently, plates are transferred to FLIPR to detect calcium increase with the addition of L-quisqualate (100 nM) measured as relative fluorescence units (RFU). If antagonists are tested, these compounds are pre-incubated for 10 minutes at RT before addition of the respective agonist.
For positive modulators, concentration-response curves for quisqualate are performed in the presence and absence of 10 µM modulator to determine the extent of potentiation / agonist potency increase. Thereafter, concentration-response curves for the positive modulator are performed in the presence of a fixed concentration of quisqualate showing the biggest window for potentiation (normally 10-30 nM).
as §1, §2

Compound	h left shift ([1]; h5CHO cells)	EC50 [1] [nM]	r left shift (mGluR5 receptors)	EC50 (mGluR5 receptors) [nM]	IC50 ([1]; Table A2, negative modulation, compounds added 5 minutes before L-quisqualic acid (~80% of the maximal signal), h5CHO cells, read-out: hIC50) [nM]	IC50 (mGluR5 receptors; Table A2, pre-incubated 10 minutes before L-quisqualate (100 nM), read-out: rIC50) [nM]
COC1CCCc2ncc(C#Cc3ccccc3)cc21 (racemic) [Example 1, (rac)-5-Methoxy-3-(phenylethynyl)-5,6,7,8-tetrahydroquinoline]	2.6-fold	32.1	4.9-fold	22.7	–	–
COC1CC(C)(C)Cc2ncc(C#Cc3cccc(N)n3)cc21 (racemic) [Example 5, (rac)-6-((5-Methoxy-7,7-dimethyl-5,6,7,8-tetrahydroquinolin-3-yl)ethynyl)pyridin-2-amine]	–	–	–	–	66.7	45.7
CN1CC2(CCCc3ncc(C#Cc4ccccc4)cc32)OC1=O (racemic) [Example 11, (rac)-3-Methyl-3'-(phenylethynyl)-7',8'-dihydro-6'H-spiro[oxazolidine-5,5'-quinolin]-2-one]	1.8-fold	53.7	2.9-fold	58.6	–	–
O=C1OC2(CCCc3ncc(C#Cc4ccccc4)cc32)CN1c1ccccc1 (racemic) [Example 12, (rac)-3-Phenyl-3'-(phenylethynyl)-7',8'-dihydro-6'H-spiro[oxazolidine-5,5'-quinolin]-2-one]	1.9-fold	966	–	856	–	–
CN1CCO[C@@H]2c3cc(C#Cc4ccccc4)cnc3CC[C@@H]21 (racemic) [Example 13, (rac)-cis-4-Methyl-9-(phenylethynyl)-3,4,4a,5,6,10b-hexahydro-2H-[1,4]oxazino[2,3-f]quinoline]	1.7-fold	425	1.7-fold	–	–	–
CCN1CCO[C@@H]2c3cc(C#Cc4ccccc4)cnc3CC[C@@H]21 (racemic) [Example 14, (rac)-cis-4-Ethyl-9-(phenylethynyl)-3,4,4a,5,6,10b-hexahydro-2H-[1,4]oxazino[2,3-f]quinoline]	2.2-fold	659	3.6-fold	580	–	–
CCCN1CCO[C@@H]2c3cc(C#Cc4ccccc4)cnc3CC[C@@H]21 (racemic) [Example 15, (rac)-cis-9-(Phenylethynyl)-4-propyl-3,4,4a,5,6,10b-hexahydro-2H-[1,4]oxazino[2,3-f]quinoline]	3.2-fold	88.6	5.2-fold	175	–	–
CCCN1CCO[C@@H]2c3cc(C#Cc4ccccc4F)cnc3CC[C@@H]21 (racemic) [Example 18, (rac)-cis-9-((2-Fluorophenyl)ethynyl)-4-propyl-3,4,4a,5,6,10b-hexahydro-2H-[1,4]oxazino[2,3-f]quinoline]	2.6-fold	247	2.6-fold	613	–	–
CCCN1CCO[C@@H]2c3cc(C#Cc4cccc(F)c4)cnc3CC[C@@H]21 (racemic) [Example 19, (rac)-cis-9-((3-Fluorophenyl)ethynyl)-4-propyl-3,4,4a,5,6,10b-hexahydro-2H-[1,4]oxazino[2,3-f]quinoline]	1.9-fold	188	2.6-fold	323	–	–
CCCN1CCO[C@@H]2c3cc(C#Cc4ccc(F)cc4)cnc3CC[C@@H]21 (racemic) [Example 20, (rac)-cis-9-((4-Fluorophenyl)ethynyl)-4-propyl-3,4,4a,5,6,10b-hexahydro-2H-[1,4]oxazino[2,3-f]quinoline]	1.8-fold	394	3.3-fold	1350	–	–
CCCN1CCO[C@H]2c3cc(C#Cc4ccccc4)cnc3CC[C@@H]21 (racemic) [Example 22, (rac)-trans-9-(Phenylethynyl)-4-propyl-3,4,4a,5,6,10b-hexahydro-2H-[1,4]oxazino[2,3-f]quinoline]	2.2-fold	1800	1.8-fold	–	–	–
CC(C)CN1CCO[C@@H]2c3cc(C#Cc4ccccc4)cnc3CC[C@@H]21 (racemic) [Example 23, (rac)-cis-4-Isobutyl-9-(phenylethynyl)-3,4,4a,5,6,10b-hexahydro-2H-[1,4]oxazino[2,3-f]quinoline]	5.3-fold	4	11.7-fold	132	–	–
FC(F)(F)CN1CCO[C@@H]2c3cc(C#Cc4ccccc4)cnc3CC[C@@H]21 (racemic) [Example 24, (rac)-cis-9-(Phenylethynyl)-4-(2,2,2-trifluoroethyl)-3,4,4a,5,6,10b-hexahydro-2H-[1,4]oxazino[2,3-f]quinoline]	2.1-fold	65.3	4.2-fold	134	–	–
FC(F)(F)CCN1CCO[C@@H]2c3cc(C#Cc4ccccc4)cnc3CC[C@@H]21 (racemic) [Example 25, (rac)-cis-9-(Phenylethynyl)-4-(3,3,3-trifluoropropyl)-3,4,4a,5,6,10b-hexahydro-2H-[1,4]oxazino[2,3-f]quinoline]	2.0-fold	36.9	3.6-fold	136	–	–
COC(=O)N1CCO[C@@H]2c3cc(C#Cc4ccccc4)cnc3CC[C@@H]21 (racemic) [Example 26, (rac)-cis-Methyl 9-(phenylethynyl)-4a,5,6,10b-tetrahydro-2H-[1,4]oxazino[2,3-f]quinoline-4(3H)-carboxylate]	2.9-fold	958	4.4-fold	599	–	–
CN(C)C(=O)N1CCO[C@@H]2c3cc(C#Cc4ccccc4)cnc3CC[C@@H]21 (racemic) [Example 27, (rac)-cis-N,N-Dimethyl-9-(phenylethynyl)-4a,5,6,10b-tetrahydro-2H [1,4]oxazino[2,3-f]quinoline-4(3H)-carboxamide]	2.4-fold	884	3.3-fold	427	–	–
CC1(C)c2cc(C#Cc3ccccc3)cnc2CCS1(=O)=O [Example 75, 5,5-Dimethyl-3-(phenylethynyl)-7,8-dihydro-5H-thiopyrano[4,3-b]pyridine 6,6-dioxide]	1.6-fold	971	–	–	–	–
